From ChEMBL document CHEMBL5335848, “Penicilloneines A and B, Quinolone-Citrinin Hybrids from a Starfish-Derived Penicillium sp” (2024)
Values after ≈ are worked out from the molar mass of the structure shown. Active and inactive are the calls of the source. The rule behind the calls is not given here.

Key:
[1] = tested on: Colletotrichum gloeosporioides; experiment: Antifungal activity against Colletotrichum gloeosporioides assessed as inhibition of mycelial growth incubated for 3 days by cross-bonded method; format: functional; conditions: for LC50: 72 h, time 3 day; for Activity: time 3.0 day
[2] = tested on: Colletotrichum gloeosporioides; experiment: Antifungal activity against Colletotrichum gloeosporioides assessed as induction of morphological changes by measuring appearance of evident craters on surface at 5 mg/L measured after 48 hrs by SEM analysis; format: functional, organism-based
[3] = tested on: Colletotrichum gloeosporioides; experiment: Antifungal activity against Colletotrichum gloeosporioides assessed as induction of morphological changes by measuring appearance of distorted hyphae at 5 mg/L measured after 48 hrs by SEM analysis; format: functional, organism-based
[4] = tested on: Colletotrichum gloeosporioides; experiment: Antifungal activity against Colletotrichum gloeosporioides assessed as induction of morphological changes by measuring appearance of twisted hyphae at 5 mg/L measured after 48 hrs by SEM analysis; format: functional, organism-based
[5] = tested on: Colletotrichum gloeosporioides; experiment: Antifungal activity against Colletotrichum gloeosporioides assessed as induction of morphological changes by measuring appearance of clustered/bundled hyphae at 5 mg/L measured after 48 hrs by SEM analysis; format: functional, organism-based
[6] = tested on: Colletotrichum gloeosporioides; experiment: Antifungal activity against Colletotrichum gloeosporioides assessed as induction of morphological changes by measuring increase in low density particles in cytoplasm at 5 mg/L incubated for 24 hrs by TEM analysis; format: functional, organism-based
[7] = tested on: Colletotrichum gloeosporioides; experiment: Antifungal activity against Colletotrichum gloeosporioides assessed as induction of morphological changes by measuring reduction in high density particles in cytoplasm at 5 mg/L incubated for 24 hrs by TEM analysis; format: functional, organism-based
[8] = tested on: Colletotrichum gloeosporioides; experiment: Antifungal activity against Colletotrichum gloeosporioides assessed as induction of morphological changes by measuring aggregation of particles into clusters in cytoplasm at 5 mg/L incubated for 24 hrs by TEM analysis; format: functional, organism-based
[9] = tested on: Colletotrichum gloeosporioides; experiment: Antifungal activity against Colletotrichum gloeosporioides assessed as induction of morphological changes by measuring appearance of vacuolizations at 5 mg/L incubated for 24 hrs by TEM analysis; format: functional, organism-based
[10] = tested on: Colletotrichum gloeosporioides; experiment: Antifungal activity against Colletotrichum gloeosporioides assessed as induction of morphological changes by measuring appearance of disorganized organelles at 5 mg/L incubated for 24 hrs by TEM analysis; format: functional, organism-based
[11] = tested on: Colletotrichum gloeosporioides; experiment: Antifungal activity against Colletotrichum gloeosporioides assessed as induction of morphological changes by measuring disappearance of organelles at 5 mg/L incubated for 24 hrs by TEM analysis; format: functional, organism-based
[12] = tested on: Colletotrichum gloeosporioides; experiment: Antifungal activity against Colletotrichum gloeosporioides assessed as induction of morphological changes by measuring degradation of plasma membrane at 5 mg/L incubated for 24 hrs by TEM analysis; format: functional, organism-based
[13] = tested on: Colletotrichum gloeosporioides; experiment: Antifungal activity against Colletotrichum gloeosporioides assessed as induction of morphological changes by measuring separation of plasma membrane from cell wall at 5 mg/L incubated for 24 hrs by TEM analysis; format: functional, organism-based
[14] = tested on: Colletotrichum gloeosporioides; experiment: Antifungal activity against Colletotrichum gloeosporioides assessed as induction of morphological changes by measuring appearance of cavities at 5 mg/L incubated for 24 hrs by TEM analysis; format: functional, organism-based
[15] = tested on: Colletotrichum gloeosporioides; experiment: Antifungal activity against Colletotrichum gloeosporioides assessed as fold decrease in 3-carboxymuconate cyclase encoding gene expression by qRT-PCR analysis relative to control; format: functional
[16] = tested on: Colletotrichum gloeosporioides; experiment: Antifungal activity against Colletotrichum gloeosporioides assessed as fold decrease in pyruvate decarboxylase encoding gene expression by qRT-PCR analysis relative to control; format: functional
[17] = tested on: Colletotrichum gloeosporioides; experiment: Antifungal activity against Colletotrichum gloeosporioides assessed as fold decrease in phosphoketolase encoding gene expression by qRT-PCR analysis relative to control; format: functional
[18] = tested on: Colletotrichum gloeosporioides; experiment: Antifungal activity against Colletotrichum gloeosporioides assessed as fold decrease in oxalate decarboxylase encoding gene expression by qRT-PCR analysis relative to control; format: functional
[19] = tested on: Colletotrichum gloeosporioides; experiment: Antifungal activity against Colletotrichum gloeosporioides assessed as fold increase in putative hydrolase encoding gene expression by qRT-PCR analysis relative to control; format: functional
[20] = tested on: Colletotrichum gloeosporioides; experiment: Antifungal activity against Colletotrichum gloeosporioides assessed as fold increase in acetylcholinesterase encoding gene expression by qRT-PCR analysis relative to control; format: functional
[21] = tested on: Colletotrichum gloeosporioides; experiment: Antifungal activity against Colletotrichum gloeosporioides assessed as fold increase in glycosyl hydrolase encoding gene expression by qRT-PCR analysis relative to control; format: functional
[22] = tested on: Colletotrichum gloeosporioides; experiment: Antifungal activity against Colletotrichum gloeosporioides assessed as fold increase in leucine aminopeptidase encoding gene expression by qRT-PCR analysis relative to control; format: functional
[23] = tested on: Colletotrichum gloeosporioides; experiment: Antifungal activity against Colletotrichum gloeosporioides assessed as fold increase in lipase encoding gene expression by qRT-PCR analysis relative to control; format: functional
[24] = tested on: Colletotrichum gloeosporioides; experiment: Antifungal activity against Colletotrichum gloeosporioides assessed as fold increase in beta-galactosidase encoding gene expression by qRT-PCR analysis relative to control; format: functional
[25] = tested on: Colletotrichum gloeosporioides; experiment: Antifungal activity against Colletotrichum gloeosporioides assessed as decrease in 3-carboxymuconate cyclase encoding gene expression by RNA-seq analysis; format: functional, organism-based
[26] = tested on: Colletotrichum gloeosporioides; experiment: Antifungal activity against Colletotrichum gloeosporioides assessed as decrease in pyruvate decarboxylase encoding gene expression by RNA-seq analysis; format: functional, organism-based
[27] = tested on: Colletotrichum gloeosporioides; experiment: Antifungal activity against Colletotrichum gloeosporioides assessed as decrease in phosphoketolase encoding gene expression by RNA-seq analysis; format: functional, organism-based
[28] = tested on: Colletotrichum gloeosporioides; experiment: Antifungal activity against Colletotrichum gloeosporioides assessed as decrease in oxalate decarboxylase encoding gene expression by RNA-seq analysis; format: functional, organism-based
[29] = tested on: Colletotrichum gloeosporioides; experiment: Antifungal activity against Colletotrichum gloeosporioides assessed as increase in putative hydrolase encoding gene expression by RNA-seq analysis; format: functional, organism-based
[30] = tested on: Colletotrichum gloeosporioides; experiment: Antifungal activity against Colletotrichum gloeosporioides assessed as increase in acetylcholinesterase encoding gene expression by RNA-seq analysis; format: functional, organism-based
[31] = tested on: Colletotrichum gloeosporioides; experiment: Antifungal activity against Colletotrichum gloeosporioides assessed as increase in glycosyl hydrolase encoding gene expression by RNA-seq analysis; format: functional, organism-based
[32] = tested on: Colletotrichum gloeosporioides; experiment: Antifungal activity against Colletotrichum gloeosporioides assessed as increase in leucine aminopeptidase encoding gene expression by RNA-seq analysis; format: functional, organism-based
[33] = tested on: Colletotrichum gloeosporioides; experiment: Antifungal activity against Colletotrichum gloeosporioides assessed as increase in lipase encoding gene expression by RNA-seq analysis; format: functional, organism-based
[34] = tested on: Colletotrichum gloeosporioides; experiment: Antifungal activity against Colletotrichum gloeosporioides assessed as increase in beta-galactosidase encoding gene expression by RNA-seq analysis; format: functional, organism-based
[35] = tested on: Colletotrichum gloeosporioides; experiment: Antifungal activity against Colletotrichum gloeosporioides assessed as disruption of cell wall at 5 mg/L incubated for 24 hrs by TEM analysis; format: functional, organism-based

`CC1=C2C(=CO[C@H](C)[C@H]2C)C(O)=C(Cc2c(O)c3ccccc3n(C)c2=O)C1=O` was tested. Which LC50 [1] did it give?
Its LC50 is 0.02 µg/mL (≈ 0.0508 µM).

What about the Activity [2] of the same compound?
The Activity was “Active”.

What about the Activity [3] of the same compound?
Its Activity is “Active”.

What about the Activity [4] of the same compound?
Its Activity is “Active”.

What about the Activity [5] of the same compound?
Its Activity is “Active”.

And the Activity [6]?
Its Activity is “Active”.

And the Activity [7]?
The Activity was “Active”.

What about the Activity [8] of the same compound?
Its Activity is “Active”.

And the Activity [9]?
The Activity was “Active”.

What about the Activity [10] of the same compound?
Its Activity is “Active”.

What about the Activity [11] of the same compound?
Its Activity is “Active”.

And the Activity [12]?
Its Activity is “Active”.

What about the Activity [13] of the same compound?
The Activity was “Active”.

And the Activity [14]?
The Activity was “Active”.

What about the “fold change (FC)” value [15] of the same compound?
The value was 386.

What about the “fold change (FC)” value [16] of the same compound?
The value was 215.

What about the “fold change (FC)” value [17] of the same compound?
The value was 1.47.

What about the “fold change (FC)” value [18] of the same compound?
The value was 23.8.

And the “fold change (FC)” value [19]?
Its value is 14.

What about the “fold change (FC)” value [20] of the same compound?
Its value is 6.

What about the “fold change (FC)” value [21] of the same compound?
The value was 1.7.

What about the “fold change (FC)” value [22] of the same compound?
The value was 3.5.

And the “fold change (FC)” value [23]?
Its value is 8.9.

What about the “fold change (FC)” value [24] of the same compound?
Its value is 4.7.

And the Activity [25]?
The Activity was “Active”.

And the Activity [26]?
Its Activity is “Active”.

And the Activity [27]?
Its Activity is “Active”.

And the Activity [28]?
Its Activity is “Active”.

What about the Activity [29] of the same compound?
Its Activity is “Active”.

What about the Activity [30] of the same compound?
The Activity was “Active”.

What about the Activity [31] of the same compound?
The Activity was “Active”.

What about the Activity [32] of the same compound?
The Activity was “Active”.

And the Activity [33]?
Its Activity is “Active”.

What about the Activity [34] of the same compound?
Its Activity is “Active”.

How did the Activity [1] turn out when `Cc1c(O)c(C(=O)O)c(O)c2c1[C@H](C)[C@@H](C)OC2=O` was run?
Its Activity is “Active”.

Which Activity [1] does the source give for `Cn1c(=O)cc(O)c2ccccc21` here?
The Activity was “Active”.

Which Activity [1] does the source give for `CC1=C2C(=CO[C@H](C)[C@H]2C)C(O)=C(C(=O)O)C1=O` here?
Its Activity is “Active”.

Mancozeb was tested. Which Activity [1] did it give?
Its Activity is “Active”.

What about the Activity [9] of the same compound?
The Activity was “Active”.

What about the Activity [35] of the same compound?
The Activity was “Active”.

Which LC50 [1] does the source give for `Cc1c(O)c(Cc2c(O)c3ccccc3n(C)c2=O)c(O)c2c1[C@H](C)[C@@H](C)OC2=O` here?
Its LC50 is 1.51 µg/mL (≈ 3.69 µM).
